Where a name gives a salt, the structure may show the parent alone. Read-outs that look alike come from different tables or passages of the source. Where a SMILES comes first, the peptide text is derived from it. The star is where a group is joined. X1 = CCC1=C(C)c2cc3[nH]c(cc4nc(c(C)c5cc(C)c(cc1n2)[nH]5)[C@@H](CCC(=O)*)[C@@H]4C)c(C)c3CC
Experiments:
[1] = tested on: Human ovarian cancer cell line SKOV3; test: Phototoxicity in SKOV3 cells after 660 nm laser or LED activation (AlamarBlue viability); assay type: cell-based
Description: Samples were stored at 4° C. protected from light. […] All data are shown as mean±SD (where appropriate). […] Laser and LED exposure induce an equivalent response in relation to phototoxicity. Following activation, cells were cultured for a further 24 hours. Media was then replaced with fresh media containing AlamarBlue, and % viable cells remaining assessed as above. Controls included cells treated with reduced chlorin analogues but not activated by laser light; cells without reduced chlorin analogue treatment but with laser light; and untreated controls. All measurements were made in quadruplicate.

[2] = tested on: Human ovarian cancer cell line SKOV3; test: Inherent cytotoxicity (dark toxicity) in SKOV3 cells (AlamarBlue viability); assay type: cell-based
Description: Photosensitizers (e.g. chlorin analogue, chlorin e4 disodium (provided by Advanced Molecular Technologies, Scoresby) or Talaporfin sodium (purchased from Focus Bioscience cat #HY-16477-5MG)) were resuspended in 100% dimethylsulfoxide (DMSO) at a concentration of 5.5 mM. Samples were stored at 4° C. protected from light.
All data are shown as mean±SD (where appropriate).
Untreated cells were used as a control. […] All measurements were made in quadruplicate.

[3] = tested on: indomethacin-induced gastric lesions; settings: rats; background statement; cited from earlier work
[4] = tested on: TAA- or CCl4-induced acute liver injuries; settings: mice; background statement; cited from earlier work
C57BL/6 mice = test: Acute toxicity after intraperitoneal injection into mice; assay type: in vivo; settings: 5 mg/kg intraperitoneal, observed for 30 mins, prepared with 1% PVP in PBS+20 mM HEPES
Description: To assess acute toxicity, reduced phyllochlorin or chlorin e4 disodium (each prepared with 1% PVP in PBS+20 mM HEPES) were administered at a dose of 5 mg/kg to C57BL/6 mice by intraperitoneal injection.

[5] = Estimated pKa of the carboxylic acid; assay type: physicochemical; settings: estimate, no measurement described
From the text: As PBS buffer (pH 7.4) is used in the experiments and the carboxylic acid in reduced phyllochlorin (and the same carboxy group in other related chlorins) is estimated to have a pKa of less than 5, reduced phyllochlorin in the PBS buffer will exist predominantly as the sodium and potassium salts with very little to no free acid.

[6] = Homo sapiens, SK-OV-3, light or radiation study, SKOV3 cells, 24 hours uptake, 660 nm laser, 50 mW/cm^2 for 5 mins (15 J/cm^2), viability 24 hours after activation, read-out: Phototoxicity μM (IC90)
[7] = Homo sapiens, SK-OV-3, light or radiation study, SKOV3 cancer cells, laser or LED, read-out: phototoxicity IC90
[8] = SKOV3 cells, 24 hours incubation, no light activation
[9] = Homo sapiens, SK-OV-3, light or radiation study, SKOV3 cells, 24 hours uptake, 660 nm LED panel, 50 mW/cm^2 for 5 mins (15 J/cm^2), values marked *, read-out: Phototoxicity μM (IC90), measured by LED
[10] = SKOV3 cells, 24 hours uptake, 660 nm laser, 50 mW/cm^2 for 5 mins (15 J/cm^2), viability 24 hours after activation, read-out: Phototoxicity μM (IC90)

Row | Molecule | IC90 [1, 6] | Dark toxicity μM (IC10) ([2]; human, 24 h) | other results
1 | CCC1=C(C)c2cc3[nH]c(cc4nc(c(C)c5cc(C)c(cc1n2)[nH]5)[C@@H](CCC(=O)N(C)CCOCCOCCOCCOCCOCCOC)[C@@H]4C)c(C)c3CC [Compound 14, Reduced Phyllochlorin N-methyl-N-3,6,9,12,15,18-hexaoxanonadecyl propylamide] | 0.161 µM | 3.940 µM | 
2 | CCC1=C(C)c2cc3[nH]c(cc4nc(c(C)c5cc(C)c(cc1n2)[nH]5)[C@@H](CCC(=O)N[C@@H]1C(O)O[C@H](CO)[C@@H](O)[C@@H]1O)[C@@H]4C)c(C)c3CC (stereo partly drawn) [Compound 15, Reduced Phyllochlorin 2-deoxy-D-mannosamine-propylamide] | 0.07 µM | 5.400 µM | 
3 | CCC1=C(C)c2cc3[nH]c(cc4nc(c(C)c5cc(C)c(cc1n2)[nH]5)[C@@H](CCC(=O)N(C)CCOCCOCC[P+](c1ccccc1)(c1ccccc1)c1ccccc1)[C@@H]4C)c(C)c3CC [Compound 16, Reduced Phyllochlorin N-(2-(2-(2-triphenylphosphoniumethoxy)ethoxy)ethyl)-N-methyl-3-amide chloride] | 0.011 µM | 3.205 µM | 
4 | CCC1=C(C)c2cc3[nH]c(cc4nc(c(C)c5cc(C)c(cc1n2)[nH]5)[C@@H](CCC(=O)N(C)CCC[S+]([O-])[C@@H]1O[C@H](CO)[C@@H](O)[C@H](O)[C@H]1O)[C@@H]4C)c(C)c3CC (stereo partly drawn) [Compound 17, Reduced Phyllochlorin β-D-1-thioglucose-N-methylpropylamide sulfoxide] | 0.174 µM | 4.752 µM | 
5 | CCC1=C(C)c2cc3[nH]c(cc4nc(c(C)c5cc(C)c(cc1n2)[nH]5)[C@@H](CCCN)[C@@H]4C)c(C)c3CC [Compound 18, Reduced Phyllochlorin 3-aminopropyl] | 0.01 µM | 3.946 µM | IC90 [1, 7]: ≤ 0.01 µM
6 | CCC1=C(C)c2cc3[nH]c(cc4nc(c(C)c5cc(C)c(cc1n2)[nH]5)[C@@H](CCC(=O)N(C)CCO)[C@@H]4C)c(C)c3CC [Compound 19, Reduced Phyllochlorin N-2-hydroxyethyl-N-methyl propylamide] | 0.061 µM | 15.940 µM | 
7 | CCC1=C(C)c2cc3[nH]c(cc4nc(c(C)c5cc(C)c(cc1n2)[nH]5)[C@@H](CCCO)[C@@H]4C)c(C)c3CC [Compound 20, Reduced Phyllochlorin 3-hydroxypropyl] | 0.063 µM | 5.825 µM | 
8 | CCC1=C(C)c2cc3[nH]c(cc4nc(c(C)c5cc(C)c(cc1n2)[nH]5)[C@@H](CCC(=O)N(C)CCCCCCCCCC[P+](c1ccccc1)(c1ccccc1)c1ccccc1)[C@@H]4C)c(C)c3CC [Compound 21, Reduced Phyllochlorin ((methylamino)-10-decyl)triphenylphosphonium Chloride Propylamide] | 0.022 µM | 1.465 µM | 
9 | CCC1=C(C)c2cc3[nH]c(cc4nc(c(C)c5cc(C)c(cc1n2)[nH]5)[C@@H](CCC(=O)N(C)CCCO)[C@@H]4C)c(C)c3CC [Compound 22, Reduced Phyllochlorin N-3-hydroxypropyl-N-methyl Propylamide] | 0.042 µM | 4.348 µM | 
10 | CCC1=C(C)c2cc3[nH]c(cc4nc(c(C)c5cc(C)c(cc1n2)[nH]5)[C@@H](CCC(=O)N(C)CCCCCO)[C@@H]4C)c(C)c3CC [Compound 23, Reduced Phyllochlorin N-5-hydroxypentyl-N-methyl Propylamide] | 0.064 µM | 4.540 µM | 
11 | CCC1=C(C)c2cc3[nH]c(cc4nc(c(C)c5cc(C)c(cc1n2)[nH]5)[C@@H](CCC(=O)N[C@H]1C(O)O[C@H](CO)[C@H](O)[C@@H]1O)[C@@H]4C)c(C)c3CC (stereo partly drawn) [Compound 24, Reduced Phyllochlorin 2-deoxy-D-galactosamine-propylamide] | 0.049 µM | 7.011 µM | 
12 | CCC1=C(C)c2cc3[nH]c(cc4nc(c(C)c5cc(C)c(cc1n2)[nH]5)[C@@H](CCC(=O)N[C@@H](CCCCN)C(=O)N[C@@H](CCCCN)C(=O)N[C@@H](CCCCN)C(=O)N[C@@H](CCCCN)C(=O)N[C@@H](CCCCN)C(=O)N(C)C)[C@@H]4C)c(C)c3CC [Compound 26, Reduced Phyllochlorin lysyl-lysyl-lysyl-lysyl-lysyl Dimethylamide Propylamide Pentahydrochloride] (X1-KKKKK-NMe2) | 0.494 µM |  | Dark toxicity μM (IC10) [2, 8]: 14.670 µM
13 | CCC1=C(C)c2cc3[nH]c(cc4nc(c(C)c5cc(C)c(cc1n2)[nH]5)[C@@H](CCC[P+](c1ccccc1)(c1ccccc1)c1ccccc1)[C@@H]4C)c(C)c3CC [Compound 27, Reduced Phyllochlorin 3-triphenylphosphonium Propyl Iodide] |  | 1.326 µM | IC90 [1, 7]: ≤ 0.01 µM; IC90 [1, 9]: 0.0055 µM
14 | CCC1=C(C)c2cc3[nH]c(cc4nc(c(C)c5cc(C)c(cc1n2)[nH]5)[C@@H](CCC(=O)N[C@@H](CCCCN)C(=O)N(C)C)[C@@H]4C)c(C)c3CC [Compound 31, Reduced Phyllochlorin N-Lysyl Dimethylamide Propylamide Hydrochloride] |  | 8.850 µM | IC90 [1, 9]: 0.011 µM
15 | CCC1=C(C)c2cc3[nH]c(cc4nc(c(C)c5[nH]c(cc1n2)c(C)c5C(=O)O)[C@@H](CCC(=O)O)[C@@H]4C)c(C)c3CC [Compound 36, Reduced Chlorin e4] | 4.36 µM | 12.200 µM | 
16 | CCC1=C(C)c2cc3[nH]c(cc4nc(c5c6[nH]c(cc1n2)c(C)c6C(=O)OC5)[C@@H](CCC(=O)O)[C@@H]4C)c(C)c3CC [Compound 39, Reduced Chlorin K] |  | 6.613 µM | IC90 [1, 9]: 0.141 µM
17 | CCC1=C(C)c2cc3[nH]c(cc4nc(c5c6[nH]c(cc1n2)c(C)c6C(=O)OC5)[C@@H](CCC(=O)N(C)CCCS[C@@H]1O[C@H](CO)[C@@H](O)[C@H](O)[C@H]1O)[C@@H]4C)c(C)c3CC [Compound 40, Reduced Chlorin K β-D-1-thioglucose-N-methylpropylamide] |  | 3.222 µM | IC90 [1, 9]: 0.229 µM
18 | C=Cc1c(C)c2cc3nc(c(C)c4[nH]c(cc5nc(cc1[nH]2)C(C)=C5CC)c(C)c4C(=O)O)[C@@H](CCC(=O)O)[C@@H]3C [chlorin e4, Chlorin e4] |  |  | effect against indomethacin-induced gastric lesions [3]: protective effect; effect against TAA- or CCl4-induced acute liver injuries [4]: protective effect
19 | Phyllochlorin free acid [reference compound] |  |  | IC90 [1, 10]: 0.43 µM; Dark toxicity μM (IC10) [2, 8]: 13.50 µM
20 | Phyllochlorin sodium salt [reference compound] |  |  | IC90 [1, 10]: 0.35 µM; Dark toxicity μM (IC10) [2, 8]: 21.96 µM
21 | Reduced Phyllochlorin Methyl Ester [Compound 6] |  |  | IC90 [1, 10]: 0.371 µM; Dark toxicity μM (IC10) [2]: 11.650 µM
22 | Reduced Phyllochlorin N-(2-(2-(2-picolinylethoxy)ethoxy)ethyl)-N-methyl-3-amide chloride [Compound 28] |  |  | IC90 ([1]; SKOV3 cells, 24 hours uptake, 660 nm LED panel, 50 mW/cm^2 for 5 mins (15 J/cm^2), values marked *, read-out: Phototoxicity μM (IC90), measured by LED): 0.0326 µM; Dark toxicity μM (IC10) [2, 8]: 1.510 µM
23 | Reduced Phyllochlorin N-(2-(2-hydroxyethoxy)ethyl)-N-methylpropylamide [Compound 7] |  |  | IC90 [1, 10]: 0.036 µM; Dark toxicity μM (IC10) [2]: 26.100 µM
24 | Reduced Phyllochlorin [Compound 1] |  |  | IC90 [1, 10]: 0.176 µM; increase in phototoxicity of meso-compound compared to non-meso analogue ([1]; SKOV3 cells, vs phyllochlorin free acid / phyllochlorin sodium salt): 2.4 fold; Dark toxicity compared to non-meso analogue [2]: largely unaffected; Dark toxicity μM (IC10) [2]: 10.450 µM; clinical signs of acute toxicity (squinting, piloerection, loss of motility, general behaviour) (C57BL/6 mice): safe for injection; pKa of the carboxylic acid (estimated) [5]: less than 5
